ChEMBL document CHEMBL1201862, “PubChem BioAssay data set” (2004)
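Cells were grown in 96-well plates and exposed to each compound for 48 hours at five concentrations; endpoints were interpolated linearly between bracketing concentrations, or set to the highest concentration if not reached. At the GI50, growth is halved.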 Calls of active or inactive are those of the source. Cut-off read from the data, not from the text of the source: active = GI50 up to about 1.1 µM and inactive = higher.

Assays:
Assay in all cases: NCI tumour cell line growth inhibition, 48 h
CCRF-CEM = tested on: CCRF-CEM
COLO 205 = tested on: COLO 205
DLD-1 = tested on: DLD-1
DMS-114 = tested on: DMS-114
HCT-116 = tested on: HCT-116
HOP-62 = tested on: HOP-62
HOP-92 = tested on: HOP-92
IGROV-1 = tested on: IGROV-1
KM12 = tested on: KM12
LOX IMVI = tested on: LOX IMVI
MOLT-4 = tested on: MOLT-4
Malme-3M = tested on: Malme-3M
OVCAR-4 = tested on: OVCAR-4
RPMI-8226 = tested on: RPMI-8226
SK-MEL-5 = tested on: SK-MEL-5
SNB-19 = tested on: SNB-19
SNB-75 = tested on: SNB-75
SNB-78 = tested on: SNB-78
UACC-62 = tested on: UACC-62
XF498 = tested on: XF498
786-0 = tested on: 786-0
A498 = tested on: A498
A549 = tested on: A549
ACHN = tested on: ACHN
CAKI-1 = tested on: CAKI-1
DMS-273 = tested on: DMS-273
EKVX = tested on: EKVX
HCC 2998 = tested on: HCC 2998
HCT-15 = tested on: HCT-15
HL-60 = tested on: HL-60
K562 = tested on: K562
KM-20L2 = tested on: KM-20L2
LXFL 529 = tested on: LXFL 529
M14 = tested on: M14
M19-MEL = tested on: M19-MEL
NCI-H23 = tested on: NCI-H23
NCI-H460 = tested on: NCI-H460
NCI-H522 = tested on: NCI-H522
OVCAR-3 = tested on: OVCAR-3
OVCAR-5 = tested on: OVCAR-5
OVCAR-8 = tested on: OVCAR-8
RXF 393 = tested on: RXF 393
SF-268 = tested on: SF-268
SF-539 = tested on: SF-539
SK-MEL-28 = tested on: SK-MEL-28
SK-MEL-2 = tested on: SK-MEL-2
SK-OV-3 = tested on: SK-OV-3
SW-620 = tested on: SW-620
TK-10 = tested on: TK-10
U-251 = tested on: U-251
UACC-257 = tested on: UACC-257
UO-31 = tested on: UO-31

`Cc1cc(-c2ccc(/N=N/c3ccc4c(S(=O)(=O)O)cc(S(=O)(=O)O)c(N)c4c3O)c(C)c2)ccc1/N=N/c1ccc2c(S(=O)(=O)O)cc(S(=O)(=O)O)c(N)c2c1O` was tested, and the GI50 (CCRF-CEM) was > 100 µM (inactive), the GI50 (COLO 205) was > 100 µM (inactive) and the GI50 (DLD-1) was > 100 µM (inactive). For the same compound, the GI50 (DMS-114) was > 100 µM (inactive), the GI50 (HCT-116) was > 100 µM (inactive) and the GI50 (HOP-62) was > 100 µM (inactive). For the same compound, the GI50 (HOP-92) was > 100 µM (inactive), the GI50 (IGROV-1) was > 100 µM (inactive) and the GI50 (KM12) was > 100 µM (inactive). The GI50 (LOX IMVI) was > 100 µM (inactive), the GI50 (MOLT-4) was > 100 µM (inactive) and the GI50 (Malme-3M) was > 100 µM (inactive). The GI50 (OVCAR-4) was > 63.4 µM (inactive), the GI50 (RPMI-8226) was > 100 µM (inactive) and the GI50 (SK-MEL-5) was > 100 µM (inactive). The GI50 (SNB-19) was > 100 µM (inactive), the GI50 (SNB-75) was > 100 µM (inactive) and the GI50 (SNB-78) was > 100 µM (inactive). For the same compound, the GI50 (UACC-62) was > 100 µM (inactive) and the GI50 (XF498) was > 100 µM (inactive).
With `CCOc1ccc(NC(=O)/C(Cc2nc3ccccc3nc2O)=N\O)cc1` the GI50 (786-0) was > 100 µM (inactive), the GI50 (A498) was > 100 µM (inactive) and the GI50 (A549) was > 100 µM (inactive). For the same compound, the GI50 (ACHN) was > 100 µM (inactive), the GI50 (CAKI-1) was > 100 µM (inactive) and the GI50 (CCRF-CEM) was > 100 µM (inactive). For the same compound, the GI50 (COLO 205) was > 100 µM (inactive), the GI50 (DLD-1) was > 100 µM (inactive) and the GI50 (DMS-114) was > 100 µM (inactive). For the same compound, the GI50 (DMS-273) was > 100 µM (inactive), the GI50 (EKVX) was 75 µM (inactive) and the GI50 (HCC 2998) was > 100 µM (inactive). For the same compound, the GI50 (HCT-116) was > 100 µM (inactive), the GI50 (HCT-15) was greater than 100 µM and the GI50 (HL-60) was > 10 µM (inactive). For the same compound, the GI50 (HOP-62) was > 100 µM (inactive), the GI50 (HOP-92) was 54.2 µM (inactive) and the GI50 (IGROV-1) was > 100 µM (inactive). The GI50 (K562) was > 100 µM (inactive), the GI50 (KM-20L2) was > 100 µM (inactive) and the GI50 (KM12) was > 100 µM (inactive). The GI50 (LOX IMVI) was > 100 µM (inactive), the GI50 (LXFL 529) was > 100 µM (inactive) and the GI50 (M14) was > 100 µM (inactive). For the same compound, the GI50 (M19-MEL) was > 100 µM (inactive), the GI50 (MOLT-4) was > 100 µM (inactive) and the GI50 (Malme-3M) was > 100 µM (inactive). The GI50 (NCI-H23) was > 100 µM (inactive), the GI50 (NCI-H460) was > 100 µM (inactive) and the GI50 (NCI-H522) was > 100 µM (inactive). The GI50 (OVCAR-3) was > 100 µM (inactive), the GI50 (OVCAR-4) was > 100 µM (inactive) and the GI50 (OVCAR-5) was > 100 µM (inactive). For the same compound, the GI50 (OVCAR-8) was > 100 µM (inactive), the GI50 (RPMI-8226) was > 100 µM (inactive) and the GI50 (RXF 393) was > 100 µM (inactive). The GI50 (SF-268) was > 100 µM (inactive), the GI50 (SF-539) was > 100 µM (inactive) and the GI50 (SK-MEL-28) was > 100 µM (inactive). The GI50 (SK-MEL-2) was > 100 µM (inactive), the GI50 (SK-MEL-5) was > 100 µM (inactive) and the GI50 (SK-OV-3) was > 100 µM (inactive). For the same compound, the GI50 (SNB-19) was > 100 µM (inactive), the GI50 (SNB-75) was 70.1 µM (inactive) and the GI50 (SNB-78) was > 100 µM (inactive). The GI50 (SW-620) was > 100 µM (inactive), the GI50 (TK-10) was > 100 µM (inactive) and the GI50 (U-251) was > 100 µM (inactive). The GI50 (UACC-257) was > 100 µM (inactive), the GI50 (UACC-62) was > 100 µM (inactive) and the GI50 (UO-31) was > 100 µM (inactive).
